Experimental data: patent publication US6399759B1, “Ant proteases and methods of inhibition” (University of Georgia Research Foundation, Inc., priority 1999, dated 2002)
“And” between values parts separate entries of the source, which are not always exact repeats. Equal values may be shown once. Where a SMILES comes first, the peptide text is derived from it. [ ]: non-standard residue; d: D form. The star is where a group is joined. Sta = CC(C)C[C@H](N)[C@@H](O)CC(=O)O; Isovaleryl = CC(C)CC(=O)*

How the values were obtained:
Soli C1 [1] = biological target: T1, Soli C1 (Solenopsis invicta, UniProt Q7SIG2); assay type: biochemical
T1 construct: Fourth instar larvae were extracted in a 1:10 (weight/volume) ratio of 20 mM Tris-HCl pH 7.4; from tissue; host or cells: whole Solenopsis invicta 4th instar larvae (buffer extract, acetone precipitation, Q Sepharose peak III, Mono Q, Superdex 75)
T1 sequence (Q7SIG2 whole entry): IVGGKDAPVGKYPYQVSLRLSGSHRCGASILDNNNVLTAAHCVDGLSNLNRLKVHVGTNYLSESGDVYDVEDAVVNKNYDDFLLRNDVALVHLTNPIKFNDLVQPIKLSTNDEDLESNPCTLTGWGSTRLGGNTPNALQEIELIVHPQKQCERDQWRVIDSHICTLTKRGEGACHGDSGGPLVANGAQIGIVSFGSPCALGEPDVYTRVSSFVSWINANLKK

Soli C2 [2] = assay: Inhibition of amidolytic activity by synthetic inhibitors; assay type: biochemical, Solenopsis invicta
Soli E1 [3] = assay: as above; assay type: biochemical, Solenopsis invicta
Soli E2 [4] = assay: as above; assay type: biochemical, Solenopsis invicta
Soli C1 [5] = biological target: T1, Soli C1; assay: Inhibition of amidolytic activity by naturally occurring protease inhibitors; assay type: biochemical; conditions: 10 minutes incubation at 25° C. in 50 mM Tris-HCl, 100 mM NaCl, pH 7.4
Method: (§1) Enzyme Assay—Generally, the amidolytic activities of each proteinase were measured with the substrates MeOSuc-Ala-Ala-Pro-Val-pNA (SEQ ID NO:8) and N-Suc-Ala-Ala-Pro-Phe-pNA (SEQ ID NO:7) in 0.05 M Tris-HCl and 100 mM NaCl pH 7.4 (assay buffer). Release of the pNA group was assayed by monitoring the optical density of the test solution at […]. Enzyme inhibition assays by protein inhibitors were conducted in the same assay buffer using an inhibitor concentration ranging from 0.02-50 nM with a 10 minute preincubation time and with the final enzyme concentration being 1.0 nM. All kinetic studies with substrates and inhibitors were performed at the optimum pH of the individual proteinases, utilizing the following buffers: 150 mM NaCl, 50 mM Tris-HCl pH 8.0 (E1); 150 mM NaCl, 50 mM CHES pH 9.5 (E2 and C2); and 150 mM NaCl, 50 mM CAPS pH 10.0 (C1).

Soli C2 [6] = assay: as above; assay type: biochemical, Solenopsis invicta; conditions: 10 minutes incubation at 25° C. in 50 mM Tris-HCl, 100 mM NaCl, pH 7.4
Method: as §1

Soli E1 [7] = assay: as above; assay type: biochemical, Solenopsis invicta; conditions: 10 minutes incubation at 25° C. in 50 mM Tris-HCl, 100 mM NaCl, pH 7.4
Method: as §1

Soli E2 [8] = assay: as above; assay type: biochemical, Solenopsis invicta; conditions: 10 minutes incubation at 25° C. in 50 mM Tris-HCl, 100 mM NaCl, pH 7.4
Method: as §1

[9] = pH optimum of the purified proteinases; assay type: biochemical, Solenopsis invicta; conditions: Vmax of substrate hydrolysis, room temperature, pH range 3.0 to 12.0
Method: (§2) pH analysis—The determination of pH optimum and stability for each enzyme was performed using a Universal Phosphate Buffer system, which is a buffer made from boric acid and phosphoric acid titrated with sodium hydroxide such that the ionic strength is the same at any pH. Briefly, equal volumes of a solution of 80 mM boric acid and a solution of 80 mM phosphoric acid were combined, and 200 mM sodium hydroxide was added to bring the mixture to the desired pH.

[10] = assay type: physicochemical, Solenopsis invicta
Method: as §2

[11] = Isoelectrofocusing (IEF) of the purified proteinases; assay type: physicochemical, Solenopsis invicta; conditions: IEF gels pH 3-10, Serva Test Mix 9 standards
Method: IEF—Isoelectrofocusing of the purified proteinases was performed on precast isoelectric focusing gels (pH 3-10) obtained under the trade designation […] PRECOTES (Cresent Chemical Co., Inc., Hauppauge, N.Y.). Sample preparations and isoelectrofocusing were carried out following instructions provided by Pharmacia and using the Pharmacia Flatbed Electrophoresis Unit.
IEF—Based on Serva Test Mix 9 IEF standards (Cresent Chemical Co., Inc.), the proteinases migrated to the following pI's; Soli E1, 10.0; Soli E2 (3 isoforms), 6.9, 8.3, 8.5; Soli C1, 4.7; and Soli C2, 4.2.

Row | Molecule | Inhibition of Soli C1 by class-specific proteinase inhibitors (in words) (Soli C1 [1]) | Inhibition of Soli C2 by class-specific proteinase inhibitors (in words) (Soli C2 [2]) | Inhibition of Soli E1 by class-specific proteinase inhibitors (in words) (Soli E1 [3]) | pH optimum [9] | Stability of enzyme activity [10] | pI [11] | further results
1 | CC(C)C[C@H](NC(=O)[C@H]1O[C@@H]1C(=O)O)C(=O)NCCCCN=C(N)N (relative stereo) [E-64, trans-epoxysuccinyl-L-leucylamido-(4-guanidino)butane] | not | not | not | – | – | – | –
2 | O=c1oc(Cl)c(Cl)c2ccccc12 [DCIC, 3,4-dichloroisocoumarin] | not Soli C1 or Soli C2, except after long incubation periods | not Soli C1 or Soli C2, except after long incubation periods | inhibited | – | – | – | Inhibition of Soli E2 by class-specific proteinase inhibitors (in words) (Soli E2 [4]): inhibited
3 | O=C(O)CN(CCN(CC(=O)O)CC(=O)O)CC(=O)O [EDTA, ethylenediaminetetraacetate·2H2O] | not | not | not | – | – | – | –
4 | CC(C)CC(=O)N[C@H](C(=O)N[C@H](C(=O)N[C@@H](CC(C)C)[C@@H](O)CC(=O)N[C@@H](C)C(=O)N[C@@H](CC(C)C)[C@@H](O)CC(=O)O)C(C)C)C(C)C [Pepstatin] (Isovaleryl-VV[Sta]A[Sta]-OH) | not | not | not | – | – | – | –
5 | Canadian Goose OM Domain III: Domain III of Canadian goose ovomucoid | – | – | – | – | – | – | IC50 (Soli C1 [5]): > 50 nM; IC50 (Soli C2 [6]): > 50 nM; IC50 (Soli E1 [7]): 1.51 nM; IC50 (Soli E2 [8]): 27.3 nM
6 | Domestic Goose OM Domain III: Domain III of domestic goose ovomucoid | – | – | – | – | – | – | IC50 (Soli C1 [5]): > 50 nM; IC50 (Soli C2 [6]): > 50 nM; IC50 (Soli E1 [7]): > 50 nM; IC50 (Soli E2 [8]): 5.58 nM
7 | Soli C1: chymotrypsin-like serine proteinase, about 25 kDa, from S. invicta 4th instar larvae (IVGGDAPVGKYPYQVSLRLSG) | – | – | – | 9.0-10.5 | stable for several days | 4.7 | –
8 | Soli C2: chymotrypsin-like serine proteinase, about 28 kDa, from S. invicta 4th instar larvae (IVGGEPAPGGAYPFIVSLQV) | – | – | – | 9.0 | lost their activities fairly quickly over all pHs | 4.2 | pH at which most stable [10]: 8.0
9 | Soli E1: elastase-like serine proteinase, about 23 kDa, from S. invicta 4th instar larvae (IVGGQPATPGEFPHQGSLRV) | – | – | – | 8.0 | lost their activities fairly quickly over all pHs | 10.0 | pH at which most stable [10]: 7.0
10 | Soli E2: elastase-like serine proteinase, about 24 kDa, from S. invicta 4th instar larvae (IVGGQDAAPGEFPHQGSLRLRGSHI) | – | – | – | 8.5-10 | lost their activities fairly quickly over all pHs | 6.9 and 8.3 and 8.5 | pH at which most stable [10]: 8.5
11 | α1-PI: α-1-Proteinase Inhibitor | – | – | – | – | – | – | IC50 (Soli C1 [5]): 0.338 nM; IC50 (Soli C2 [6]): 0.271 nM; IC50 (Soli E1 [7]): 1.2 nM; IC50 (Soli E2 [8]): 0.604 nM
